Test system: 2nd instar larva of Spodoptera frugiperda
Assay: Laboratory test with 2nd instar larva of Spodoptera frugiperda on maize leaves
Assay type: in vivo

CNC(=O)c1cc(Cl)cc(C)c1NC(=O)c1cc(Br)nn1-c1ncccc1Cl [Compound 2, 3-bromo-N-[4-chloro-2-methyl-6-[(methylamino)carbonyl]phenyl]-1-(3-chloro-2-pyridinyl)-1H-pyrazole-5-carboxamide]
concentration per g of leaf tissue resulting in 50% mortality within 72 h: 0.033 micrograms per g of leaf tissu
concentration per g of tissue needed to achieve 100% mortality within 72 h: 0.037 micrograms per g of tissue
